One experiment relates to S. pneumoniae. The experiment can be described thus: Murine pneumonia model (invasive pneumococcal pneumonia). The class given is in vivo. To be noted: 3 mg/kg IV at 24 and 48 hours after S. pneumoniae LD90 inoculation; moxifloxacin at 6, 24, 48 hours; all vehicle animals succumbed by 80 hours. The method, then: The effects of Compound 1 and Compound 2[2-(3-fluoro-4-hydroxyphenyl)-7-vinyl-1,3-benzoxazol-5-ol, or ERB-041] initially dosed at 3 mg/kg IV were being assessed on 7-day survival, microbial clearance and attenuation the acute and chronic pro-inflammatory effects of invasive pneumococcal pneumonia in lung tissue and distant organs in the murine pneumonia model. [Mohler J et al. Intensive Care Med 2003; 29:808-816.] Compound 1 and Compound 2 were tested to determine their ability to modulate the pathophysiology of severe infection and mortality from local and systemic inflammation from severe bacterial pneumonia. The compounds were delivered IV at 24 and 48 hours after inoculation with S. pneumoniae at an LD90 dose. Moxifloxacin was given at 6, 24 and 48 hours. The animals became bacteremic and develop a lethal pulmonary and systemic infection between 48 and 72 hours after the primary inoculation. All of the vehicle treated animals succumbed by 80 hours (3 days and 8 hours), while at 7 days 20% of the Compound 1—treated animals were alive and 60% of the Compound 2—treated animals survived.

Experiment [1] has as its system peripheral blood mononuclear cells (PBMC) gene transcripts and plasma chemokines. Briefly: Plasma proteome and PBMC gene transcription in the IV live E. coli challenge model in baboon. The class given is in vivo. Here is the method:
The plasma proteome and gene transcription of peripheral blood mononuclear cells (PBMC) were investigated using the baboon model of sepsis to evaluate the effect of Compound 1 on progression of the disease. The study comprised three treatment groups—sham-treated, vehicle, and Compound 1—of three baboons each. Blood samples were drawn at multiple time points (0, 0.5, 1, 2, 3, 4, 6, 24, 48, and 168 hours) from each baboon. NuGen amplified RNA was prepared from peripheral blood mononuclear cells (PBMC) isolated from the 0, 1, 6, and 24 hour blood samples. RNA levels were then measured using Affymetrix rhesus monkey Genechips, which interrogated 52,865 transcripts. Of interest was whether expression levels of one or more of these transcripts differed among the three treatment groups over the course of the study.
Genechip data were processed using Affymetrix MAS 5 software to calculate detection p-values and signal (expression) values. Detection p-values were used to generate Affymetrix Absent, Marginal, or Present calls (p-value≧0.065: Absent; 0.05≦p-value<0.065: Marginal; p-value<0.05: Present). Signal values were normalized by the standard MAS 5 procedure.
This filter reduced the number of transcripts for further analysis to 43,181.
To adjust for differences among animals in baseline expression values, change from baseline expression was analyzed. Change from baseline expression values were calculated using log2-transformed signal values. For each transcript, the log2 signal value for an animal at the 0 hour (baseline) sampling time was subtracted from the log2 signal value for the same animal for each later sampling time to yield change from baseline values for 1, 6, and 24 hours for that animal.
Repeated-measures analysis of variance (ANOVA) was used to compare (log2-transformed) change from baseline expression values in the treatment groups across the sampling time points. The ANOVA model included terms for treatment group and sampling time, and a term for the interaction between treatment group and time. The model also included a compound symmetry covariance parameter to account for any within-animal correlation between measurements at different sampling times from the same animal. Separate ANOVAs were run for each transcript. Pairwise comparisons between treatment groups were computed for mean concentrations across all times as well as for each time point separated. These pairwise comparisons were based on two-sided t-tests, with the error term for the t-tests based on the overall error term from the ANOVA.
Due to the substantial number of statistical tests performed, false discovery rates (FDRs) were used to adjust the raw p-values from F-tests and t-tests for multiple comparisons. The FDRs were computed to control the family-wise error level by calculating FDRs across transcripts separately for each set of comparisons (e.g., each pairwise comparison at a particular sampling time).

Experiment [2] has as its system lung tissue gene expression. The experiment can be described thus: Lung tissue gene expression in the mCLP model (Affymetrix array, Ingenuity Pathways Analysis). Format: in vivo. To be noted: mice subjected to CLP, intravenous treatment at CLP induction, lung tissue at 48 hours. The method, then:
In order to further define the activity of Compound 1 in murine CLP, satellite groups of mice were treated intravenously at the time of CLP induction surgery with vehicle or Compound 1. An additional group of mice(surgical sham group) were subjected to the anesthesia and laparotomy, the cecum was manipulated but not ligated, and then the abdomen was closed. Because mCLP produces a progressive sepsis state, the animals become extremely ill and begin to succumb between 48-72 hours after mCLP. Thus, these animals were euthanized at 48 hours and lung tissue samples collected for gene expression analysis.
Messenger RNA was prepared by standard techniques, and the samples were processed on the Mouse430—2 Affymetrix commercial array, containing 45,037 non-control probe sets.
A heat map of differential gene expression was used to detect those gene transcripts with gene expression decreasing and those gene transcripts with gene expression increasing.
Using Ingenuity Pathways Analysis (IPA), 277 of the 522 probe sets were eligible for generating pathways. […] These pathways are identified in Table 4.

Experiment [3] relates to CLP-induced polymicrobial sepsis. Briefly: Murine cecal ligation and puncture (CLP) model of polymicrobial sepsis. The class given is in vivo, BALB/c mice. To be noted: score 0 normal to 4 marked diffuse inflammation and damage; oral dosing from time of CLP; euthanized at 48 hours; 8 animals; p<0.001 vs vehicle 3.08±0.74. The method, then: Murine cecal ligation and puncture is an accepted model of sepsis and was performed according to a previously published protocol [Opal et al., “evaluation of the safety of recombinant P-selectin glycoprotein ligand-immunoglobulin G fusion protein in experimental models of localized and systemic infection,” Shock 2001;15:285-90]. […] Acute lung injury is a documented component of this peritonitis-induced sepsis, and the model has been used to study the effects of other pharmaceutical agents on acute lung injury in sepsis [Tsujimoto et al. Shock 2005;23:39-44; and Singleton et al. Am J Physiol Regul Integr Comp Physiol (Jan. 18, 2007)].
Mice were euthanized at 48 hours following CLP and treatment with vehicle or Compound 1, both treatments having begun at the time of CLP.
Compound 1 was given at a range of doses orally at time 0, 24 and 48 hours following CLP in male and female BALB/c mice Survival, inflammatory markers, lung histopathology, and microbiologic parameters were assessed.
Multiple lung specimens were taken at necropsy from 8 vehicle- and 8 Compound 1—treated animals and evaluated by an independent pathologist unaware of the treatment group assignments. Treatment with Compound 1 reduced lung lesions (such as lung edema and lung inflammation) comparing to that with vehicle (Compound 1: 1.0±0.76 vs. vehicle: 3.08±0.74, p<0.001). […]

A further experiment relates to E. coli. Briefly: Intravenous E. coli challenge model of sepsis in baboons. The class given is in vivo. The following applies: 10 mg/kg intravenously. Here is the method: The intravenous E. coli infusion model of sepsis in baboons has been used for many years in sepsis research [Taylor F B Crit Care Med 2001 ;29:S78-89], and it has acute lung injury as one of its pathophysiological features [Sabharwal A K et al. Am J Resp Crit Care 1995; 151:758-67].
Compound 1 was given at a range of doses […] intravenously at a dose of 10 mg/kg in baboons 5 minutes before and then at 2, 24, 48, 72 and 96 hours following E. coli challenge. Survival, inflammatory markers, lung histopathology, and microbiologic parameters were assessed.
In the baboon study the lungs were examined at euthanasia of the animals when moribund or at the end of the 7 day experiment. Animals were assigned to vehicle and Compound 1 E. coli challenge. The lung specimens were evaluated by an independent pathologist unaware of treatment group assignments.

Where [4] appears, read: baboon plasma after E coli challenge.
[5] abbreviates: by 24 hours after E coli infusion, compared to vehicle treated animals.

The values that follow come from patent US20080182872A1, “USE OF ER-BETA SELECTIVE LIGANDS FOR TREATING ACUTE LUNG INJURIES” (WYETH, priority 2007, published 2008).

Each structure is given as a SMILES string.

For `C=Cc1cc(O)cc2nc(-c3ccc(O)c(F)c3)oc12` [Compound 2, 2-(3-fluoro-4-hydroxyphenyl)-7-vinyl-1,3-benzoxazol-5-ol], in the experiment with S. pneumoniae, the “animals alive (survival) at 7 days” value is recorded as 60%.

Turning to `N#Cc1cc(-c2ccc(O)c(F)c2)cc2ccc(O)cc12` [Compound 1, 3-(3-fluoro-4-hydroxy-phenyl)-7-hydroxy-naphthalene-1-carbonitrile], in experiment [1] (setting [4]), the “plasma MCP-1” value is “significantly reduced” and the “plasma MIP-1 alpha” value was “significantly reduced”. In addition, in experiment [1] (setting [5]), the “Hypoxia inducible factor-2 Alpha (HIF2-ALPHA) gene transcript in PBMC” value was “decreased”; the “Nuclear receptor subfamily 4, group A, member 3 (NR4A3) gene transcript in PBMC” value is on record as “decreased”; the “early growth response 3 (EGR-3) gene transcript in PBMC” value is given as “decreased”. Besides, the “animals alive (survival) at 7 days” value in the experiment on S. pneumoniae was 20%. Further, the “proinflammatory pathways (gene transcripts) in the lungs” value in experiment [2] was “significantly decreased”. In experiment [3], the “lung lesions (lung edema and lung inflammation) histopathology score” value is reported as 1.0±0.76. Besides, the “clinical signs of pulmonary injury (percent change in respiratory rate from baseline)” value in the experiment with E. coli is “attenuated”. For the same compound, in the experiment on E. coli (lungs at euthanasia or day 7), the “hyaline membrane formation (histopathology)” value is recorded as “absence of hyaline membrane formation” and the “intrapulmonary hemorrhage (histopathology)” value is “decreased intrapulmonary hemorrhage”.
